Measurements as given in patent publication US20230107186A1, “COBICISTAT FOR PREVENTION AND/OR TREATMENT OF CORONAVIRUS INFECTIONS” (priority 2020, published 2023).

System: S-protein
Type: cell-based, SARS-CoV-2

CC(C)c1nc(CN(C)C(=O)N[C@@H](CCN2CCOCC2)C(=O)N[C@H](CC[C@H](Cc2ccccc2)NC(=O)OCc2cncs2)Cc2ccccc2)cs1 [Cobicistat, 1,3-thiazol-5-ylmethyl [(2R,5R)-5-{[(2S)-2-({[(2-isopropyl-1,3-thiazol-4-yl)methyl](methyl)carbamoyl}amino)-4-(morpholin-4-yl)butanoyl]amino}-1,6-diphenylhexan-2-yl]carbamate]
S-protein levels: decreased | concentration range with effect in western blot analysis: 5 to 10 µM
